Results reported in patent US20080182234A1, “Methods and Compositions for Modulating Adenosine Triphosphate (ATP) in Cells and Preventing Cell Injury or Death via Post-translational Modifications to ATP Synthase” (priority 2001, published 2008).
“Also recorded” adds a separate entry of the source.

Key:
[1] = tested on: ATP synthase β chain precursor; assay: Two-dimensional gel electrophoresis (silver stain, western blot) of cytoplasmic extract of adenosine-treated isolated myocytes; assay type: cell-based, rabbit
Protocol: Ventricular myocytes from New Zealand White rabbits (weighing 1 to 2 kg) were isolated by collagenase dissociation, as described previously by Liu et al. (Circ. Res. 1996 78:443-454). Hearts were excised, then perfused with collagenase (1.0 mg/mL, Worthington type II) for 14 minutes at a maintained perfusion pressure of 75 mm Hg on a Langendorff apparatus, yielding >50% Ca^2+-tolerant ventricular myocytes. Cell isolation was followed directly by pharmacological preconditioning, which was carried out by treatment with 100 μmol/L adenosine (Sigma) for 60 minutes in a 37° C. water bath, as described previously by Liu et al. supra. Untreated cells were prepared concurrently as drug-free controls. Equivalent 25 μL aliquots of cells (containing ˜30 mg/mL of protein as determined by Lowry assay (Lowry, O. H. J. Biol. Chem. 1951 193:265-275) were frozen and stored at −80° C. until analysis. All steps in the “1N Sequence” protein extraction protocol to produce cytoplasmic and myofilament enriched extracts were carried out at 4° C., and all centrifugations were conducted at 16000×g for 2 minutes at 4° C. Myocyte proteins were first extracted by two rounds of homogenization in 100 μL of HEPES extraction buffer, consisting of (in mmol/L) HEPES 25 (pH 7.4), NaF 50, Na3VO4 0.25, phenylmethylsulfonyl fluoride 0.25, EDTA 0.5, and (in μmol/L) leupeptin 1.25, pepstatin A 1.25. […]

[2] = tested on: isolated myocytes obtained from rabbit hearts; settings: 100 μM adenosine for 60 minutes; cited from earlier work

Nc1ncnc2c1ncn2[C@@H]1O[C@H](CO)[C@@H](O)[C@H]1O [adenosine]
additional, more acidic spots at the molecular weight of intact ATP synthase β chain precursor on 2-D gel (silver stain or western blot) ([1]; isolated rabbit cardiomyocytes, 100 μM adenosine for 60 minutes, cytoplasmic extract, n=4, control had only a single protein spot): Two additional spots | post-translational modifications of ATP synthase β-chain precursor ([1]; isolated rabbit myocytes treated with adenosine for 60 minutes (n=4) versus untreated myocytes): An increase in the post-translational modifications; also recorded: Post-translational modifications to the ATP synthase β-chain precursor were detected | protection against cell death [2]: sufficient to protect against cell death
